Reference: US4608390A, “Lipoxygenase inhibiting compounds” (Abbott Laboratories, priority 1985, dated 1986)

Assays:
Assay type in all cases: biochemical
5-lipoxygenase = target: T1, 5-lipoxygenase (Rattus norvegicus, UniProt P12527); assay: 5-Lipoxygenase IC50 determination (20,000×G supernatant of homogenized RBL-1 cells, radiolabeled arachidonic acid); conditions: RBL-1 cell 20,000×G supernatant
T1 construct: 20,000×G supernatant from 7.5×10^6 homogenized RBL-1 cells; endogenous in cells; host or cells: RBL-1 cells (20,000xG supernatant of homogenate)
T1 sequence (P12527 1-673): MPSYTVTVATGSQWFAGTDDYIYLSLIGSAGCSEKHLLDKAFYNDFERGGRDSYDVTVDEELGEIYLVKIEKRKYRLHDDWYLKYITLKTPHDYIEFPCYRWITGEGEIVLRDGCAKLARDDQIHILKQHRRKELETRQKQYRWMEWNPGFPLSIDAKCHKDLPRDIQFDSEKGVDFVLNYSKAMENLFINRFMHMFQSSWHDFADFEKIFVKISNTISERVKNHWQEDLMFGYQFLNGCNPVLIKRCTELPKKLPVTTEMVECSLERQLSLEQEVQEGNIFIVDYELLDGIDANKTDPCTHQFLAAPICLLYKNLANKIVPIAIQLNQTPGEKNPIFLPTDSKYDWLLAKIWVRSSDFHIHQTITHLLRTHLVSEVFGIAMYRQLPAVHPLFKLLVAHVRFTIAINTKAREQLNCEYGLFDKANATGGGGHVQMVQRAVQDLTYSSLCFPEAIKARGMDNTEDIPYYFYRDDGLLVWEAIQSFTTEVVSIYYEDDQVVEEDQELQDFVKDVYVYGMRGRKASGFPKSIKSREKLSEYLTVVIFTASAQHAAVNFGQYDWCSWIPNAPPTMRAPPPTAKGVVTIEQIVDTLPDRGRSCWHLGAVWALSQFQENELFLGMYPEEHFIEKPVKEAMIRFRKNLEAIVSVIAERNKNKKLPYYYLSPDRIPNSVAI
Protocol: Reactions were initiated by the addition of radiolabeled arachidonic acid and terminated by acidification and ether extraction. Reaction products were separated from nonconverted substrate by thin layer chromatography and measured by liquid scintillatiton spectroscopy. Inhibition of 5-lipoxygenase activity was calculated as the ratio of the amounts of product formed in the presence and absence of inhibitor. […]

12-lipoxygenase = target: T2, 12-lipoxygenase (Homo sapiens, UniProt P18054); assay: 12-lipoxygenase inhibition (12-lipoxygenase obtained from human platelets); conditions: for inhibition at 10 µM: read-out: % Inhibition at Indicated Concentration, 12-lipoxygenase, 10 μM; for inhibition at 100 µM: read-out: % Inhibition at Indicated Concentration, 12-lipoxygenase, 100 μM
T2 construct: 12-lipoxygenase obtained from human platelets; from tissue; host or cells: human platelets
T2 sequence (P18054 1-663): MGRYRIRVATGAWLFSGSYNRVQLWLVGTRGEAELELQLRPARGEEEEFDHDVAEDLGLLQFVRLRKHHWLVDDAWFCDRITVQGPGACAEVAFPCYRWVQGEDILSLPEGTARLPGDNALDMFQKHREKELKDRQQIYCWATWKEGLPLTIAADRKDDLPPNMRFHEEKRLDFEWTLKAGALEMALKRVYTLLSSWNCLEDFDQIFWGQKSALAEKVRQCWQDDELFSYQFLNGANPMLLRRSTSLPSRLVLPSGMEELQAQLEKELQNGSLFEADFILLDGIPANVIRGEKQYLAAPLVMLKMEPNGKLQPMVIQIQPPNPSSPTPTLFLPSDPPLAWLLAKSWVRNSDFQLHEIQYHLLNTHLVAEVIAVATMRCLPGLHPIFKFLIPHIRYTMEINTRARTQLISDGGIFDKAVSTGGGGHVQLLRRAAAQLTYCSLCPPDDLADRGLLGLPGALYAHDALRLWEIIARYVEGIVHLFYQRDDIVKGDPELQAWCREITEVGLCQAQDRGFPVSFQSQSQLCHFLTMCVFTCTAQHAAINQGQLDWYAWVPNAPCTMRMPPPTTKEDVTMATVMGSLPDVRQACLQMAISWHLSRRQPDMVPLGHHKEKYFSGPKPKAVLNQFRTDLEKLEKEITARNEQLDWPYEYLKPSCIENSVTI
Protocol: (§1) The compounds of this invention are potent inhibitors of 5-, 12- and 15-lipoxygenase. An assay to determine 5-lipoxygenase activity was performed in incubations containing various concentrations of the test compound and the 20,000×G supernatant from 7.5×10^6 homogenized RBL-1 cells. Reactions were initiated by the addition of radiolabeled arachidonic acid and terminated by acidification and ether extraction. Reaction products were separated from nonconverted substrate by thin layer chromatography and measured by liquid scintillatiton spectroscopy. Inhibition of 5-lipoxygenase activity was calculated as the ratio of the amounts of product formed in the presence and absence of inhibitor.
(§2) The inhibitory activities of the compounds of this invention against 12- and 15-lipoxygenase can be determined in the foregoing assay in which 12-lipoxygenase obtained from human platelets, or 15-lipoxygenase obtained from soybean, is substituted for the 5-lipoxygenase-containing cell supernatant fraction.

15-lipoxygenase = target: T3, 15-lipoxygenase (Glycine max, UniProt P08170); assay: 15-lipoxygenase inhibition (15-lipoxygenase obtained from soybean); conditions: for inhibition at 10 µM: read-out: % Inhibition at Indicated Concentration, 15-lipoxygenase, 10 μM; for inhibition at 100 µM: read-out: % Inhibition at Indicated Concentration, 15-lipoxygenase, 100 μM
T3 construct: 15-lipoxygenase obtained from soybean; from tissue; host or cells: soybean
T3 sequence (P08170 1-839): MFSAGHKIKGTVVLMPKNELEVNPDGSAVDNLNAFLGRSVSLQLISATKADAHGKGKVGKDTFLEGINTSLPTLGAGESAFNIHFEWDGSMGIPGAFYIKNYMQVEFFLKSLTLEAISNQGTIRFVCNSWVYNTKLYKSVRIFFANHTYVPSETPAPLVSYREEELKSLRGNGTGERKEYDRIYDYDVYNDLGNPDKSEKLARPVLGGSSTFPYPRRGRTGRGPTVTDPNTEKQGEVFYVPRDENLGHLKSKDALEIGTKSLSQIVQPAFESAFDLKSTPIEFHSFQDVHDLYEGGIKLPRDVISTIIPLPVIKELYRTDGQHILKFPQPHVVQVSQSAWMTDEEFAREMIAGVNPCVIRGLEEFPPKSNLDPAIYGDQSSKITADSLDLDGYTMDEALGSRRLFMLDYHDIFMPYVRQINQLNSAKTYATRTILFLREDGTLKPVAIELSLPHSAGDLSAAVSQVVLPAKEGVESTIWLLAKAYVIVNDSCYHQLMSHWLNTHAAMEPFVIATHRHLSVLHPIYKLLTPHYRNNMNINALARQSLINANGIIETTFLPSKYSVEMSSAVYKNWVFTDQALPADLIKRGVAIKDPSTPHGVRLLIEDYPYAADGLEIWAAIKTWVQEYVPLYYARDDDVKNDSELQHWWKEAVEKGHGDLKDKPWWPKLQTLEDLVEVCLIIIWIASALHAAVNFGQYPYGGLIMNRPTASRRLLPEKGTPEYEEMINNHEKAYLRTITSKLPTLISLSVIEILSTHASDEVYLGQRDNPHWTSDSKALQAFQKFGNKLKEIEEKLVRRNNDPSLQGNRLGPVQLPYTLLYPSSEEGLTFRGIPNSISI
Protocol: as §1, §2

Row | Structure (SMILES) | IC50 (5-lipoxygenase) | inhibition at 10 µM (12-lipoxygenase) | inhibition at 100 µM (12-lipoxygenase) | inhibition at 10 µM (15-lipoxygenase) | inhibition at 100 µM (15-lipoxygenase)
1 | CN(O)C(=O)C(=Cc1ccc2ccccc2c1)c1ccc(Cl)cc1 [Example 10, N-methyl-3-(2-naphthyl)-2-(4-chlorophenyl)acrylohydroxamic acid] |  | 98% |  |  | 
2 | CN(O)C(=O)C(=Cc1ccc2ccccc2c1)c1ccccc1 [Example 8, N-methyl-3-(2-naphthyl)-2-phenyl acrylohydroxamic acid] |  |  |  | 38% | 62%
3 | CCCCCC=Cc1ccc2ccc(C=CC(=O)N(C)O)cc2c1 [Example 14, N-methyl-3-[7-(1-heptenyl)-2-naphthyl]acrylohydroxamic acid] | 510 nM | 93% | 98% | 59% | 65%
4 | O=C(C=Cc1ccc2ccccc2c1)N(O)C1CCCCC1 [Example 4, N-cyclohexyl 3-(2-naphthyl)acrylohydroxamic acid] | 260 nM | 66% |  | 43% | 83%
5 | O=C(CCc1ccc2ccccc2c1)NO [Example 18, 3-(2-naphthyl)propiohydroxamic acid] | 9700 nM |  |  | 12% | 31%
6 | O=C(CCC/C=C\c1ccc2ccccc2c1)NO [Example 17, Z-6-(2-naphthyl)hex-5-enohydroxamic acid] | 1600 nM |  |  |  | 
7 | CC(=Cc1ccc2ccccc2c1)C(=O)NO [Example 6, 2-methyl-3-(2-naphthyl)acrylohydroxamic acid] |  |  |  | 45% | 100%
8 | O=C(C=Cc1ccc2ccccc2c1)NO [Example 1, 3-(2-naphthyl)acrylohydroxamic acid] |  | 92% | 100% | 2% | 19%
9 | Cc1ccc2ccc(CCC(=O)NO)cc2c1 [Example 19, 3-(7-methyl-2-napthalene)propiohydroxamic acid] | 2900 nM | 82% | 99% | 19% | 33%

More lines, now with the values ahead:

Row | IC50 (5-lipoxygenase) | inhibition at 10 µM (12-lipoxygenase) | inhibition at 100 µM (12-lipoxygenase) | inhibition at 10 µM (15-lipoxygenase) | inhibition at 100 µM (15-lipoxygenase) | Structure (SMILES)
10 | 150 nM | 75% | 84% | 31% | 63% | CC(C)N(O)C(=O)C=Cc1ccc2ccccc2c1 [Example 3, N-isopropyl 3-(2-naphthyl)acrylohydroxamic acid]
11 | 200 nM | 82% |  | 22% | 30% | O=C(C=Cc1ccc2ccccc2c1)N(O)c1ccccc1 [Example 5, N-phenyl 3-(2-naphthyl)acrylohydroxamic acid]
12 | 260 nM | 88% |  | 43% | 83% | CN(O)C(=O)C=Cc1ccc2ccccc2c1 [Example 2, N-methyl 3-(2-naphthyl)acrylohydroxamic acid]
13 | 130 nM |  |  |  |  | CN(O)C(=O)C=Cc1ccc([N+](=O)[O-])c2ccccc12 [Example 16, N-methyl-3-(4-nitro-1-naphthyl)acrylohydroxamic acid]
14 |  |  |  | 37% | 88% | CC(=Cc1ccc2ccccc2c1)C(=O)N(C)O [Example 7, 2,N-dimethyl-3-(2-naphthyl)acrylohydroxamic acid]
15 | 200 nM | 82% | 100% | 29% | 88% | CN(O)C(=O)C=Cc1cccc2ccccc12 [Example 15, N-methyl-3-(1-naphthyl)acrylohydroxamic acid]
16 |  | 81% | 97% | 19% | 49% | CN(O)C(=O)C=Cc1cc2ccccc2cc1[N+](=O)[O-] [Example 13, N-methyl-3-(3-nitro-2-naphthyl)acrylohydroxamic acid]
17 |  |  |  | 37% | 88% | CC(=CC(=O)N(C)O)c1ccc2ccccc2c1 [Example 12, 3,N-dimethyl-3-(2-naphthyl)acrylohydroxamic acid]
